Experimental data taken from PubChem BioAssay AID248 (DTP/NCI, 2004).
Values joined by “and” are separate entries in the source; they are usually repeats but may differ in a detail not shown here. Equal values may be shown once. Inconclusive results and toxic doses are left out. No stated cut-off is given here; in the data, active means T/C of 150% or more; inactive means T/C below 125%.

Test system: L1210 leukemia ip in BDF1 mice, survival T/C
Experiment: NCI In Vivo Anticancer Drug Screen. Data for tumor model L1210 Leukemia (intraperitoneal) in B6D2F1 (BDF1) mice
Settings: endpoint: mean survival time, higher = longer survival
Procedure, shortened: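 Tumor was transplanted into mice, which were then dosed with test compound or vehicle alone. Survival was recorded for each group, and the treated figure was expressed relative to the control figure.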

[1] = dose: 50.0 mg/kg/injection, schedule: Q01DX009 (ip), vehicle: Klucel (hydroxypropylcellulose) (HPC)
[2] = dose: 100.0 mg/kg/injection, schedule: Q01DX009 (ip), vehicle: Klucel (hydroxypropylcellulose) (HPC)
[3] = dose: 200.0 mg/kg/injection, schedule: Q01DX009 (ip), vehicle: Klucel (hydroxypropylcellulose) (HPC)
[4] = dose: 100.0 mg/kg/injection, schedule: Q04DX002 (ip), vehicle: saline
[5] = dose: 200.0 mg/kg/injection, schedule: Q04DX002 (ip), vehicle: saline
[6] = dose: 100.0 mg/kg/injection, schedule: Q04DX003 (ip), vehicle: saline with Tween-80
[7] = dose: 400.0 mg/kg/injection, schedule: Q04DX003 (ip), vehicle: saline with Tween-80
[8] = dose: 100.0 mg/kg/injection, schedule: Q01DX001 (ip), vehicle: carboxymethylcellulose (CMC)
[9] = dose: 200.0 mg/kg/injection, schedule: Q01DX001 (ip), vehicle: carboxymethylcellulose (CMC)
[10] = dose: 400.0 mg/kg/injection, schedule: Q01DX001 (ip), vehicle: carboxymethylcellulose (CMC)
[11] = dose: 200.0 mg/kg/injection, schedule: Q01DX009 (ip), vehicle: saline with Tween-80
[12] = dose: 400.0 mg/kg/injection, schedule: Q01DX009 (ip), vehicle: saline with Tween-80
[13] = dose: 100.0 mg/kg/injection, schedule: Q04DX003 (ip), vehicle: Klucel (hydroxypropylcellulose) (HPC)
[14] = dose: 200.0 mg/kg/injection, schedule: Q04DX003 (ip), vehicle: Klucel (hydroxypropylcellulose) (HPC)
[15] = dose: 400.0 mg/kg/injection, schedule: Q04DX003 (ip), vehicle: Klucel (hydroxypropylcellulose) (HPC)

Measured: T/C

COc1ccc2c(c1)c(-n1cc([N+](=O)[O-])nc1C)c(C)n2C(=O)c1ccc(Cl)cc1
inactive: [1] 97 % of control | [2] 97 % of control | [3] 93 % of control

CCC/C=N/Nc1ccnc(SCc2ccccc2)n1
inactive: dose: 75.0 mg/kg/injection, schedule: Q01DX009 (ip), vehicle: DMSO 88 % of control

O=c1c(Cl)c(-c2ccccc2)nc2ccccn12
inactive: dose: 12.5 mg/kg/injection, schedule: Q01DX001 (ip), vehicle: saline with Tween-80 100 % of control | dose: 25.0 mg/kg/injection, schedule: Q01DX001 (ip), vehicle: saline with Tween-80 110 % of control | dose: 50.0 mg/kg/injection, schedule: Q01DX001 (ip), vehicle: saline with Tween-80 93 % of control

CCCC#CC(=O)OCCCCC
inactive: [4] 108 % of control | [5] 94 % of control | dose: 400.0 mg/kg/injection, schedule: Q04DX002 (ip), vehicle: saline 105 % of control

c1cc2c3c(c1)nc(CCc1nc4cccc5c4n1CCC5)n3CCC2
inactive: dose: 25.0 mg/kg/injection, schedule: Q04DX003 (ip), vehicle: saline with Tween-80 101 % of control | dose: 50.0 mg/kg/injection, schedule: Q04DX003 (ip), vehicle: saline with Tween-80 95 % of control | [6] 93 % of control and 87 % of control | [7] 87 % of control

CCCCCCCCCCCCCCCCS(=O)(=O)Nc1cc(C(=O)NN)cc(C(=O)NN)c1
inactive: [6] 90 % of control | dose: 200.0 mg/kg/injection, schedule: Q04DX003 (ip), vehicle: saline with Tween-80 86 % of control | [7] 88 % of control

O=C1CCCC(=O)N1.[Tl]
inactive: dose: 3.12 mg/kg/injection, schedule: Q04DX003 (ip), vehicle: water 108 % of control | dose: 6.25 mg/kg/injection, schedule: Q04DX003 (ip), vehicle: water 102 % of control | dose: 12.5 mg/kg/injection, schedule: Q04DX003 (ip), vehicle: water 96 % of control

Cc1ccc(/C=C/c2ccccc2)cc1
inactive: dose: 75.0 mg/kg/injection, schedule: Q01DX009 (ip), vehicle: Klucel (hydroxypropylcellulose) (HPC) 98 % of control | dose: 150.0 mg/kg/injection, schedule: Q01DX009 (ip), vehicle: Klucel (hydroxypropylcellulose) (HPC) 104 % of control | dose: 300.0 mg/kg/injection, schedule: Q01DX009 (ip), vehicle: Klucel (hydroxypropylcellulose) (HPC) 103 % of control

COC(=O)c1ccccc1N(C)C(=O)Nc1ccc(F)cc1
inactive: [8] 94 % of control | dose: 100.0 mg/kg/injection, schedule: Q01DX009 (ip), vehicle: carboxymethylcellulose (CMC) 92 % of control and 97 % of control | dose: 100.0 mg/kg/injection, schedule: Q04DX002 (ip), vehicle: carboxymethylcellulose (CMC) 92 % of control and 100 % of control | dose: 100.0 mg/kg/injection, schedule: Q04DX003 (ip), vehicle: carboxymethylcellulose (CMC) 104 % of control | [9] 101 % of control | dose: 200.0 mg/kg/injection, schedule: Q01DX009 (ip), vehicle: carboxymethylcellulose (CMC) 87 % of control and 90 % of control | dose: 200.0 mg/kg/injection, schedule: Q04DX002 (ip), vehicle: carboxymethylcellulose (CMC) 98 % of control and 89 % of control | dose: 200.0 mg/kg/injection, schedule: Q04DX003 (ip), vehicle: carboxymethylcellulose (CMC) 102 % of control | [10] 89 % of control | dose: 400.0 mg/kg/injection, schedule: Q01DX009 (ip), vehicle: carboxymethylcellulose (CMC) 98 % of control and 105 % of control | dose: 400.0 mg/kg/injection, schedule: Q04DX002 (ip), vehicle: carboxymethylcellulose (CMC) 98 % of control | dose: 400.0 mg/kg/injection, schedule: Q04DX003 (ip), vehicle: carboxymethylcellulose (CMC) 90 % of control

COc1ccc(C(O)c2ccccc2C(=O)Nc2ccccc2)cc1 (stereo not drawn)
inactive: dose: 100.0 mg/kg/injection, schedule: Q01DX009 (ip), vehicle: saline with Tween-80 98 % of control | [11] 88 % of control | [12] 95 % of control

CCCCCCCC/C=C\CCCCCCCC(=O)NCCOC
inactive: dose: 37.5 mg/kg/injection, schedule: Q01DX009 (ip), vehicle: saline 97 % of control | dose: 75.0 mg/kg/injection, schedule: Q01DX009 (ip), vehicle: saline 92 % of control | dose: 75.0 mg/kg/injection, schedule: Q04DX003 (ip), vehicle: saline 90 % of control | dose: 150.0 mg/kg/injection, schedule: Q01DX009 (ip), vehicle: saline 99 % of control | dose: 150.0 mg/kg/injection, schedule: Q04DX003 (ip), vehicle: saline 98 % of control | dose: 300.0 mg/kg/injection, schedule: Q04DX003 (ip), vehicle: saline 88 % of control

O=c1cc(NC(c2ccccc2)c2ccccc2)[nH]c(=O)[nH]1
inactive: [13] 97 % of control | [14] 97 % of control | [15] 98 % of control

CCN(CC)C(=O)/C=C/C(=O)N(CC)CC
inactive: dose: 100.0 mg/kg/injection, schedule: Q04DX003 (ip), vehicle: saline 103 % of control | dose: 200.0 mg/kg/injection, schedule: Q04DX003 (ip), vehicle: saline 100 % of control | dose: 400.0 mg/kg/injection, schedule: Q04DX003 (ip), vehicle: saline 100 % of control

O=C1NOCC1N=Cc1ccccc1O (stereo not drawn)
inactive: [13] 102 % of control | [14] 98 % of control | [15] 101 % of control

O=C(COc1cc(Cl)c(Cl)cc1Cl)OCCOc1cc(Cl)c(Cl)cc1Cl
inactive: dose: 7.5 mg/kg/injection, schedule: Q01DX001 (ip), vehicle: saline 97 % of control | dose: 15.0 mg/kg/injection, schedule: Q01DX001 (ip), vehicle: saline 95 % of control | dose: 30.0 mg/kg/injection, schedule: Q01DX001 (ip), vehicle: saline 93 % of control

Cc1cc(C)n2nc(N)nc2n1
inactive: [8] 101 % of control | [9] 95 % of control | [10] 95 % of control

Nc1[nH][nH]c(=O)c1N
inactive: [1] 117 % of control | [2] 100 % of control | [3] 100 % of control

Cc1cc(C)c(N(CC(=O)O)S(=O)(=O)c2ccccc2)c(C)c1F
inactive: dose: 100.0 mg/kg/injection, schedule: Q01DX001 (ip), vehicle: Klucel (hydroxypropylcellulose) (HPC) 100 % of control | dose: 200.0 mg/kg/injection, schedule: Q01DX001 (ip), vehicle: Klucel (hydroxypropylcellulose) (HPC) 94 % of control | dose: 400.0 mg/kg/injection, schedule: Q01DX001 (ip), vehicle: Klucel (hydroxypropylcellulose) (HPC) 89 % of control

CCOc1ccc(N=Nc2c(C)nn(C(N)=S)c2-c2ccccc2)cc1
inactive: dose: 10.0 mg/kg/injection, schedule: Q01DX001 (ip), vehicle: saline 103 % of control | dose: 20.0 mg/kg/injection, schedule: Q01DX001 (ip), vehicle: saline 94 % of control | dose: 40.0 mg/kg/injection, schedule: Q01DX001 (ip), vehicle: saline 88 % of control

CCCCCCCCCCCCCCCSc1ccc2ccccc2c1
inactive: [13] 92 % of control | [14] 91 % of control | [15] 92 % of control

Cc1ccc(Nc2ccc([N+](=O)[O-])cc2)cc1
inactive: dose: 100.0 mg/kg/injection, schedule: Q01DX001 (ip), vehicle: gum acacia 93 % of control | dose: 200.0 mg/kg/injection, schedule: Q01DX001 (ip), vehicle: gum acacia 100 % of control

CCN(CC)CCNCC(Cc1ccccc1)c1ccccc1 (stereo not drawn)
inactive: [4] 99 % of control | [5] 105 % of control

CCOC(=O)C1=C(C)C(C)C(=O)NC1=O (stereo not drawn)
inactive: dose: 100.0 mg/kg/injection, schedule: Q01DX001 (ip), vehicle: saline with Tween-80 100 % of control | dose: 200.0 mg/kg/injection, schedule: Q01DX001 (ip), vehicle: saline with Tween-80 101 % of control | [11] 110 % of control | dose: 400.0 mg/kg/injection, schedule: Q01DX001 (ip), vehicle: saline with Tween-80 96 % of control | [12] 96 % of control

CN(C)c1ccc([PH+](c2ccc(N(C)C)cc2)c2ccc(N(C)C)cc2)cc1.CN(C)c1ccc([PH+](c2ccc(N(C)C)cc2)c2ccc(N(C)C)cc2)cc1.[Cl][Hg][Cl]
inactive: [1] 94 % of control | [2] 90 % of control | [3] 90 % of control
